In a melting point compilation (Tetko et al.; mined from patent text by program, amines drawn as free bases though some values may be those of a salt):

Row | melting point [°C] | SMILES
1 | 122 to 124 | CN1CCC2(CC1)OC(c1ccc(Cl)cc1)C1CCCCN12 (centres undefined)
2 | 234 to 235 | O=C1c2ccc(N3CCCC3)c3cc(Br)cc(c23)C(=O)N1O
3 | 194 to 198 | COc1c(Br)ccc2oc(CNc3ccc(-c4ccc(S(=O)(=O)NC(C(=O)O)C(C)C)cc4)cc3)c(C)c12 (centres undefined)
4 | 128 to 130 | CC(=O)c1ccc(-c2cnco2)cc1
5 | 172 to 173 | COCC(COC)Oc1cc(Oc2ccc(S(C)(=O)=O)nc2)cc2cc(C3=NCC(CC(N)=O)S3)[nH]c12 (centres undefined)
6 | 133 to 135 | CCN(CC)CCSC1=C(C#N)C(c2cccnc2)(c2ccc(OC)c(OC)c2)C(=O)N1 (centres undefined)
7 | 76 to 78 | CCN1CCCC1CNC(=O)c1nc(NC)sc1-c1ccncc1 (centres undefined)
8 | 71 to 74 | O=C(NCc1ccc(Cl)cc1)c1cn2c(CO)cc3cc(CC4CCOCC4)cc(c1=O)c32
9 | 250 to 253 | O=C(O)c1ccc(NN=C2CCCC2)cc1
10 | 209 to 210 | Cc1c(C#N)sc2nc(-c3ccc(Cl)cc3)nc(N3CCN(C)CC3)c12
11 | 130 to 131 | CCCN(c1cccc2cc(-c3nccs3)[nH]c12)S(=O)(=O)c1cccs1
12 | 187 to 189 | O=C1c2ccc(OC3CC3)cc2CCC1CN1CCC(O)(c2ccccc2)CC1 (centres undefined)
13 | 30.5 to 33.2 | CSc1c(F)cc(C(=O)CBr)cc1F
14 | 166 to 168 | O=C(c1ccccc1)N(CC(=O)N1c2ccccc2N(Cc2ccccc2)C(=O)[C@H]2CCC[C@H]21)Cc1ccccc1 (relative stereo)
15 | 197 to 198 | Cn1cc(C(=O)NCc2ccc(Cl)cc2)c(=O)c2cc(CCCO)sc21
16 | 91 to 93 | CCOC(=O)N(C)CC(N)=S
17 | 136 | COc1ccc(S(=O)(=O)N(Cc2nnnn2C)c2ccc(Cl)cc2Cc2c(F)cccc2F)cc1OC
18 | 89 to 90 | CC(C)c1cc(CO)n(Cc2ccc(Cl)cc2Cl)n1
19 | 247 | COc1cc2c(=O)oc(=O)[nH]c2c(OC)c1OC
20 | 219 to 222 | O=CCCC[C@@H](C(=O)O)N1C(=O)c2ccccc2C1=O
21 | 150 | CC(C)CNC(=O)CN1CCN(Cc2ccc3c(c2)NC(=O)C(C)O3)CC1 (centres undefined)
22 | 147 to 152 | COC(=O)c1cn(C(c2ccccc2)(c2ccccc2)c2ccccc2)cn1
23 | 166 | COC(=O)c1cc(F)ccc1Nc1ccnc2c(C(F)(F)F)cccc12
24 | 39 to 45 | CC(C)C(C)(C#N)N1C(=O)C=C(Nc2ccccc2CO)C1=O (centres undefined)
25 | 98 to 99 | COc1cccc(CC(=O)O)c1OCCCc1cc(OC(C)C)nn1Cc1ccc(C(F)(F)F)cc1Cl

Row | melting point [°C] | SMILES
26 | 176 to 178 | CCCCN(CCCCO)c1ccc(C=Cc2ccc(C=CC3=C(C#N)C(=C(C#N)C#N)OC3(C)C(F)(F)F)s2)c(OCc2ccccc2)c1 (centres undefined)
27 | 181 | CCCCn1nc(SCc2ccc(OC)cc2)c(C(=O)O)c1Cc1cc2c(cc1Cl)OCO2
28 | 220 to 222 | Cc1c(NC(=O)c2ccc(-c3ccc(C(F)(F)F)cc3)cc2)ccc2cc(CN3CCCC3)cnc12
29 | 205 to 206 | O=C(c1cc(Cl)ccc1Cl)N1CCNC1=Nc1ccc(Cl)cc1Cl
30 | 221 to 223 | COc1cc2c(cc1OC)C(c1ccc([N+](=O)[O-])c(C)c1)=NN(c1noc(=O)[nH]1)[C@H](C)C2
31 | 100 to 102 | CC(=O)c1c(C)nc2c(OCc3c(Cl)ccc(S(=O)(=O)N4CCC[C@H]4C(=O)NCCCNC(=O)c4ccc(C#N)cc4)c3Cl)cccn12
32 | 108 to 109 | CC(=O)CCN1c2ccccc2NC(=O)C1C (racemic)
33 | 196 to 198 | CC(=O)Cc1ccc(CC2SC(=N)NC2=O)cc1 (centres undefined)
34 | 184 to 186 | CCc1ccccc1NC(=O)c1ccccc1CN1C(=O)C2(COc3cc4c(cc32)CCO4)c2ccccc21 (centres undefined)
35 | 262 to 263 | N#CC1=C2C(=NC1=O)c1c(Sc3ccc(Br)cc3)ccc3c(Sc4ccc(Br)cc4)ccc2c13
36 | 234 to 235 | Clc1ccc2nc(Cl)c(I)n2c1
37 | 123 to 124 | c1csc(-c2coc(COc3ccc(CCCn4ccnc4)cc3)n2)c1
38 | 228 | COC(=O)c1csc(NC(=O)c2ccc(C#N)cc2)n1
39 | 68 to 76 | COC(=O)C(c1ccc(OCCNC(=O)C2Cc3ccccc3N2S(=O)(=O)c2ccc(-c3cccc(C(F)(F)F)c3)cc2)cc1)C(C)C (centres undefined)
40 | 203 to 205 | Fc1ccc(C2=Nc3cccnc3Nc3ccccc32)cc1
41 | 145 to 146 | COc1ccc(OC)c(/C=C/C(=O)/C=C/C(=O)O)c1
42 | 151 to 152 | CCOC(=O)/C(=N\OC1CCSC1)c1csc(N)n1 (centres undefined)
43 | > 300 | Nc1nc2c(ncn2COC(CO)COC(=O)C2(N)CC2)c(=O)[nH]1 (centres undefined)
44 | 123 to 125 | COc1ccc2cccc(C(C#N)O[Si](C)(C)C)c2c1 (centres undefined)
45 | 44 to 47 | CC(=O)c1cscc1O
46 | 251 | O=S(=O)(CC1CC1)c1nc(-c2ccc(F)cc2)c(-c2ccc(F)cc2)[nH]1
47 | 164 to 166 | CC(=O)c1cc2c(s1)CCCc1cc(=O)n(-c3ccc(Cl)cc3)nc1-2
48 | 67 to 68 | CCCCCCCCCCCCCCCOc1ccc(C(C)=O)o1
49 | > 300 | CCN1CCCC(N2C(=O)c3ccc(N)cc3C2=O)C1 (centres undefined)
50 | 79 to 83 | CCn1c(=O)sc2cc(C(c3ccc([N+](=O)[O-])cc3)n3cncn3)ccc21 (centres undefined)

Row | melting point [°C] | SMILES
51 | 246 | Cc1c(/C=C/c2cccc([N+](=O)[O-])c2C)cccc1[N+](=O)[O-]
52 | 165 to 166 | O=C1NCCc2c(OCC3CO3)cccc21 (centres undefined)
53 | 230 to 233 | CC(C)C(=O)Nc1c(Cl)cccc1C(=O)Nc1ccc(OC(F)(F)F)cc1
54 | 310 to 312 | O=C(O)CN1C(=O)c2cccc3c(C(=O)c4ccccc4)ccc(c23)C1=O
55 | 97 to 99 | C[C@@H]1[C@@H](C(=O)Cc2ccccc2)C(=O)N1OCc1ccccc1
56 | 207 to 208 | FC(F)(F)c1ccc(N=c2ccc3nc4ccccc4sc-3c2)cc1
57 | 149 to 150 | COC(=O)C(Cl)=NNc1ccc(Cl)cc1
58 | 230 to 231 | CCOC(=O)c1c(O)c2cnc(-c3ccccc3)nc2n(Cc2ccccc2)c1=O
59 | 122 | Cc1ccc(C(=O)CCC(=O)c2ccccc2)s1
60 | 120 to 123 | CC1(C)C2CCC3(C)C(C2)C(=O)CCC13O (centres undefined)
61 | 134 to 136 | O=c1c2cc(Oc3ccc(Cl)cc3)ccc2nnn1Cc1cccnc1
62 | 159 | CC(=O)CC(=O)Nc1cccc(OC(=O)NC2CCCCC2)c1
63 | 190 to 191 | COC(=O)CCCc1c(-c2ccc(F)cc2)[nH]c2ccc(-c3ccc([N+](=O)[O-])cc3)cc12
64 | 98 to 100 | CCCC1(CC(=O)O)OCCc2c1[nH]c1c(F)ccc(C(=O)N3CCOCC3)c21 (centres undefined)
65 | 97 to 98 | N#CCCCNc1cccc(/C=C/c2nc3ccccc3s2)c1
66 | 140 to 142 | CNC(=O)C(C)Oc1cc(Oc2nn(C)c(C(F)(F)F)c2Cl)ccc1[N+](=O)[O-] (centres undefined)
67 | 239 to 241 | O=C(O)CCCNC(=O)c1ccccc1NC(=O)c1cc([N+](=O)[O-])ccc1O
68 | 159 to 160 | Cc1ccc(NC(=O)CCCC2CCCCC2)cc1NC(=O)c1ccc(O)cc1
69 | 93 to 94 | COc1ccc2c(c1)CC(=O)N2C
70 | 135 to 138 | COc1nc2cc(Cl)cc(Cl)c2cc1Br
71 | 168 to 170 | NC(=O)CNC(=O)c1ccnc(-c2ccc3c(c2)C(c2ccc(Cl)cc2Cl)CC3)c1 (centres undefined)
72 | 193 to 197 | CS(=O)(=O)Nc1ccc(Cn2c(=O)n(Cc3ccc(C(F)(F)F)cc3)c3ccccc32)cc1
73 | 165 to 166 | COc1ccc(C=CC(=O)c2ccc(O)cc2)c(OC)c1
74 | 47 to 49 | c1ccc(COc2cccc3sncc23)cc1
75 | 106 to 108 | CCNC(=O)c1c(Cl)cccc1N(C)C(C)(C)C

Row | melting point [°C] | SMILES
76 | 102 to 105 | OC1CCN(c2nnc(-c3ccc(Cl)cc3)c(-c3ccc(Cl)cc3)n2)CC1
77 | 118 to 120 | O=C(OCc1ccccc1)n1ccc2c(O)cccc21
78 | 205 to 206 | CC1Cc2c(n(Cc3ccc(Cl)cc3)c3ccc(F)cc23)C(CC(=O)O)C1 (centres undefined)
79 | 50 to 55 | C=CCCC(F)c1cccc(C2(c3ccc(OC(F)F)cc3)N=C(N)N(C)C2=O)c1 (centres undefined)
80 | 266 to 268 | COC(=O)C1CCC2C3CC(O)C4(O)CC(O)CCC4(C)C3CCC12C (centres undefined)
81 | 159 to 167 | CN(C)C1CCN2CCc3ccccc3C2(c2ccc(F)cc2)C1 (centres undefined)
82 | 126 to 128 | CC(C)(C)c1ccc(C(=O)c2ccccc2O)c(C(C)(C)C)c1O
83 | 110 | CCc1c(C)nc(-c2ncc([N+](=O)[O-])n2C)nc1C
84 | 117 to 118 | O=C(O)c1cccn1Cc1ccco1
85 | 294 to 296 | CN1Cc2c(C(N)=O)ncn2-c2ccsc2C1=O
86 | 124 | CCc1nc(-c2ccc(OCCC3CCN(c4ccc(C)nn4)CC3)cc2)co1
87 | 124 to 125 | Cc1c(COc2cccc3cc(NS(=O)(=O)C(F)(F)F)ccc23)cccc1-c1ccccc1
88 | 128 | COP(=O)(Nc1ccc([N+](=O)[O-])c(NCCc2ccccc2)c1)OC
89 | 186 to 188 | CC1(C)C(=O)N(c2ccc([N+](=O)[O-])c(C(F)(F)F)c2)C(=O)N1CCOCCN1C(=O)N(c2ccc([N+](=O)[O-])c(C(F)(F)F)c2)C(=O)C1(C)C
90 | 219 to 220 | ON=Cc1ccc(-c2ccc(O)cc2)c2ccoc12
91 | 104 to 105 | CCOC(=O)N(CC(=O)NCCc1ccc(OC)c(OC)c1)c1cccc(C(N)=O)c1
92 | 98 to 100 | Cc1ccc(OCc2ccccc2)c(C(=O)O)c1
93 | 54 | CN(C(=O)COc1nnc(C(F)(F)F)s1)c1ccccc1
94 | 129 to 131 | CCCCNC(=O)NC(N)=O
95 | 195 to 198 | O=C(O)CNc1csc2ccccc12
96 | 137 to 139 | COCc1cn(-c2cccc(C(F)(F)F)c2)nc(-c2ccnn2-c2ccccc2)c1=O
97 | 182 | COc1ccc(CCNCCCOc2ccccc2NC(=O)c2cccc3[nH]ccc23)cc1OC

Row | SMILES | melting point [°C]
98 | C=C1C(=O)N(C)CCC1(CC(=O)OC)c1cccc(OC)c1 (centres undefined) | 85 to 86
99 | Cc1ccc2c(c1O)N=CC1CCCN1C2=O (centres undefined) | 148 to 150
